Test results from US10537558B2 (Bantam Pharmaceutical, LLC, priority 2015, dated 2020).

What follows are compounds tested on BJAB cells (assay: BJAB cell proliferation (Cell Titer Glo)). Conditions: Homo sapiens, read-out: EC50.
Type: cell-based
Outline: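 BJAB cells exposed to serially diluted compounds (0.1% DMSO final) for about 72 h at 37 °C. Proliferation read by Cell Titer Glo luminescence as percent of untreated controls; EC50 from non-linear regression of dose-response data.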
`Cc1nn(-c2nc(-c3ccc(Cl)c(Cl)c3)c(SC(C)C)s2)c(C(=O)O)c1-c1ccc2c(c1)OCO2` [Compound 89, 4-(benzo[d][1,3]dioxol-5-yl)-1-(4-(3,4-dichlorophenyl)-5-(isopropylthio)thiazol-2-yl)-3-methyl-1H-pyrazole-5-carboxylic Acid] gave an EC50 of 5 to 10 µM. Compound `Cc1nn(-c2nc(-c3ccc(Cl)c(Cl)c3)c(SC(C)C)s2)c(C(=O)O)c1-c1cccc(C(C)C)c1` [Compound 61, 1-(4-(3,4-dichlorophenyl)-5-(isopropylthio)thiazol-2-yl)-4-(3-isopropylphenyl)-3-methyl-1H-pyrazole-5-carboxylic Acid] has an EC50 of 1 to 5 µM. For `Cc1nn(-c2nc(C#Cc3ccc(C(F)(F)F)cc3)c(SC(C)C)s2)c(C(=O)O)c1-c1cccc(F)c1` [Compound 245, 4-(3-fluorophenyl)-1-(5-(isopropylthio)-4-((4-(trifluoromethyl)phenyl)ethynyl)thiazol-2-yl)-3-methyl-1H-pyrazole-5-carboxylic acid], the EC50 was 10 to 25 µM. `Cc1nn(-c2nc(-c3ccc(Cl)c(Cl)c3)c(SC(C)C)s2)c(C(=O)N2CCC(CN)CC2)c1-c1cc(C(F)(F)F)cc(C(F)(F)F)c1` [Compound 136, (4-(aminomethyl)piperidin-1-yl)(4-(3,5-bis(trifluoromethyl)phenyl)-1-(4-(3,4-dichlorophenyl)-5-(isopropylthio)thiazol-2-yl)-3-methyl-1H-pyrazol-5-yl)methanone] showed an EC50 of 1 to 5 µM. For `Cc1nn(-c2nc(-c3ccc(Cl)c(Cl)c3)c(SC(C)C)s2)c(C(=O)O)c1-c1ccccc1C(F)(F)F` [Compound 50, 1-(4-(3,4-dichlorophenyl)-5-(isopropylthio)thiazol-2-yl)-3-methyl-4-(2-(trifluoromethyl)phenyl)-1H-pyrazole-5-carboxylic acid], the EC50 was 5 to 10 µM. For `Cc1nn(-c2nc(-c3ccc(Cl)c(Cl)c3)c(SC3CCCCC3)s2)c(C(=O)O)c1Cc1ccccc1[N+](=O)[O-]` [Compound 19, 1-(5-(cyclohexylthio)-4-(3,4-dichlorophenyl)thiazol-2-yl)-3-methyl-4-(2-nitrobenzyl)-1H-pyrazole-5-carboxylic Acid], the EC50 was 10 to 25 µM. `Cc1nn(-c2nc(-c3ccc(C(F)(F)F)cc3)c(SC(C)C)s2)c(C(=O)O)c1-c1cc(Cl)cc(Cl)c1` [Compound 219, 4-(3,5-dichlorophenyl)-1-(5-(isopropylthio)-4-(4-(trifluoromethyl)phenyl)thiazol-2-yl)-3-methyl-1H-pyrazole-5-carboxylic Acid] was tested, and the EC50 was < 1 µM. `Cc1cc(-c2c(C)nn(-c3nc(-c4ccccc4)c(SC(C)C)s3)c2C(=O)O)cc(C)n1` [Compound 37, 4-(2,6-dimethylpyridin-4-yl)-1-(5-(isopropylthio)-4-phenylthiazol-2-yl)-3-methyl-1H-pyrazole-5-carboxylic Acid] was tested, and the EC50 was 5 to 10 µM. In the case of `COCc1cccc(-c2c(C)nn(-c3nc(-c4ccc(Cl)c(Cl)c4)c(SC(C)C)s3)c2C(=O)O)c1` [Compound 85, 1-(4-(3,4-dichlorophenyl)-5-(isopropylthio)thiazol-2-yl)-4-(3-(methoxymethyl)phenyl)-3-methyl-1H-pyrazole-5-carboxylic acid], the EC50 is reported as 5 to 10 µM. Work on `Cc1nn(-c2nc(-c3ccc(Cl)c(Cl)c3)c(CC(C)C)s2)c(C(=O)O)c1-c1cnn(C)c1` [Compound 142, 1-(4-(3,4-dichlorophenyl)-5-isobutylthiazol-2-yl)-1′,3-dimethyl-1H,1′H-[4,4′-bipyrazole]-5-carboxylic Acid] yielded an EC50 of 1 to 5 µM. For `Cc1nn(-c2nc(-c3ccc(Cl)c(Cl)c3)c(SC(C)C)s2)c(C(=O)O)c1-c1cccc(NS(C)(=O)=O)c1` [Compound 125, 1-(4-(3,4-dichlorophenyl)-5-(isopropylthio)thiazol-2-yl)-3-methyl-4-(3-(methylsulfonamido)phenyl)-1H-pyrazole-5-carboxylic acid], the EC50 was > 50 µM. Compound `COc1cc(Cl)ccc1-c1nc(-n2nc(C)c(-c3cccc(F)c3)c2C(=O)O)sc1SC(C)C` [Compound 205, 1-(4-(4-chloro-2-methoxyphenyl)-5-(isopropylthio)thiazol-2-yl)-4-(3-fluorophenyl)-3-methyl-1H-pyrazole-5-carboxylic acid] has an EC50 of 1 to 5 µM. With `COc1cccc(-c2nc(-n3nc(C)c(-c4cc(C)nc(C)c4)c3C(=O)O)sc2SC(C)C)c1` [Compound 35, 4-(2,6-dimethylpyridin-4-yl)-1-(5-(isopropylthio)-4-(3-methoxyphenyl)thiazol-2-yl)-3-methyl-1H-pyrazole-5-carboxylic Acid] the EC50 was 1 to 5 µM. `Cc1ccc(-c2nc(-n3nc(C)c(-c4cccc(F)c4)c3C(=O)O)sc2SC(C)C)cc1Cl` [Compound 207, 1-(4-(3-chloro-4-methylphenyl)-5-(isopropylthio)thiazol-2-yl)-4-(3-fluorophenyl)-3-methyl-1H-pyrazole-5-carboxylic Acid] was tested, and the EC50 was 5 to 10 µM. `CONC(=O)c1c(-c2cccc(F)c2)c(C)nn1-c1nc(-c2ccc(C(F)(F)F)cc2)c(SC(C)C)s1` [Compound 256, 4-(3-fluorophenyl)-1-(5-(isopropylthio)-4-(4-(trifluoromethyl)phenyl)thiazol-2-yl)-N-methoxy-3-methyl-1H-pyrazole-5-carboxamide] was tested, and the EC50 was 10 to 25 µM. `COc1ccc(-c2c(C)nn(-c3nc(-c4ccc(Cl)c(Cl)c4)c(SC(C)C)s3)c2C(=O)O)cc1` [Compound 116, 1-(4-(3,4-dichlorophenyl)-5-(isopropylthio)thiazol-2-yl)-4-(4-methoxyphenyl)-3-methyl-1H-pyrazole-5-carboxylic acid] gave an EC50 of 10 to 25 µM. For `CCN(CC)C1CCN(C(=O)c2c(-c3cc(C(F)(F)F)cc(C(F)(F)F)c3)c(C)nn2-c2nc(-c3ccc(Cl)c(Cl)c3)c(SC(C)C)s2)C1` (stereo not drawn) [Compound 78, (4-(3,5-bis(trifluoromethyl)phenyl)-1-(4-(3,4-dichlorophenyl)-5-(isopropylthio)thiazol-2-yl)-3-methyl-1H-pyrazol-5-yl)(3-(diethylamino)pyrrolidin-1-yl)methanone], the EC50 was > 40 µM. Work on `Cc1nn(-c2nc(-c3ccc(Cl)c(Cl)c3)c(SC(C)C)s2)c(C(=O)O)c1-c1c[nH]c2ccccc12` [Compound 110, 1-(4-(3,4-dichlorophenyl)-5-(isopropylthio)thiazol-2-yl)-4-(1H-indol-3-yl)-3-methyl-1H-pyrazole-5-carboxylic acid] yielded an EC50 of 10 to 25 µM. With `Cc1ccccc1-c1c(C)nn(-c2nc(-c3ccc(Cl)c(Cl)c3)c(SC(C)C)s2)c1C(=O)O` [Compound 117, 1-(4-(3,4-dichlorophenyl)-5-(isopropylthio)thiazol-2-yl)-3-methyl-4-o-tolyl-1H-pyrazole-5-carboxylic acid] the EC50 was 5 to 10 µM. `Cc1nn(-c2nc(-c3ccc(Cl)c(Cl)c3)c(S(=O)(=O)C(C)C)s2)c(C(=O)O)c1Cc1ccccc1[N+](=O)[O-]` [Compound 55, 1-(4-(3,4-dichlorophenyl)-5-(isopropylsulfonyl)thiazol-2-yl)-3-methyl-4-(2-nitrobenzyl)-1H-pyrazole-5-carboxylic acid] gave an EC50 of 10 to 25 µM. In the case of `COCc1noc(C)c1-c1c(C)nn(-c2nc(-c3ccc(Cl)c(Cl)c3)c(SC(C)C)s2)c1C(=O)O` [Compound 39, 1-(4-(3,4-dichlorophenyl)-5-(isopropylthio)thiazol-2-yl)-4-(3-(methoxymethyl)-5-methylisoxazol-4-yl)-3-methyl-1H-pyrazole-5-carboxylic acid], the EC50 is reported as 10 to 25 µM. For `Cc1nn(-c2nc(-c3ccc(Cl)c(Cl)c3)c(SC(C)C)s2)c(C(=O)O)c1C(O)c1ccccc1` (stereo not drawn) [Compound 53, 1-(4-(3,4-dichlorophenyl)-5-(isopropylthio)thiazol-2-yl)-4-(hydroxy(phenyl)methyl)-3-methyl-1H-pyrazole-5-carboxylic Acid], the EC50 was > 50 µM. `Cc1cccc(-c2c(C)nn(-c3nc(-c4ccc(Cl)c(Cl)c4)c(SC(C)C)s3)c2C(=O)O)c1` [Compound 118, 1-(4-(3,4-dichlorophenyl)-5-(isopropylthio)thiazol-2-yl)-3-methyl-4-m-tolyl-1H-pyrazole-5-carboxylic Acid] was tested, and the EC50 was 1 to 5 µM. `Cc1cc(-c2c(C)nn(-c3nc(-c4ccc(Cl)c(Cl)c4)c(SC(C)C)s3)c2C(=O)O)cc(-n2ccnc2)c1` [Compound 100, 4-(3-(1H-imidazol-1-yl)-5-methylphenyl)-1-(4-(3,4-dichlorophenyl)-5-(isopropylthio)thiazol-2-yl)-3-methyl-1H-pyrazole-5-carboxylic Acid] was tested, and the EC50 was 1 to 5 µM. For `CCC(C)Sc1sc(-n2nc(C)c(-c3cc(Cl)cc(Cl)c3)c2C(=O)OC)nc1-c1ccc(Cl)c(Cl)c1` (stereo not drawn) [Compound 32a], the EC50 was > 25 µM. For `Cc1cc(-c2c(C)nn(-c3nc(-c4ccc(Cl)cc4)c(SC(C)C)s3)c2C(=O)O)cc(C)n1` [Compound 159, 1-(4-(4-chlorophenyl)-5-(isopropylthio)thiazol-2-yl)-4-(2,6-dimethylpyridin-4-yl)-3-methyl-1H-pyrazole-5-carboxylic Acid], the EC50 was < 1 µM. With `COc1cc(-c2nc(-n3nc(C)c(-c4cccc(F)c4)c3C(=O)O)sc2SC(C)C)ccc1F` [Compound 189, 1-(4-(4-fluoro-3-methoxyphenyl)-5-(isopropylthio)thiazol-2-yl)-4-(3-fluorophenyl)-3-methyl-1H-pyrazole-5-carboxylic Acid] the EC50 was 10 to 25 µM. `COc1ccccc1-c1c(C)nn(-c2nc(-c3ccc(Cl)c(Cl)c3)c(SC(C)C)s2)c1C(=O)O` [Compound 114, 1-(4-(3,4-dichlorophenyl)-5-(isopropylthio)thiazol-2-yl)-4-(2-methoxyphenyl)-3-methyl-1H-pyrazole-5-carboxylic acid] showed an EC50 of 10 to 25 µM. `Cc1nn(-c2nc(-c3ccc(Cl)c(Cl)c3)c(SC(C)C)s2)cc1-c1cccc2cc[nH]c12` [Compound 128, 2-(4-(1H-indol-7-yl)-3-methyl-1H-pyrazol-1-yl)-4-(3,4-dichlorophenyl)-5-(isopropylthio)thiazole] gave an EC50 of 10 to 25 µM. For `Cc1nn(-c2nc(-c3ccc(Cl)c(Cl)c3)cs2)c(C(=O)O)c1Cc1ccccc1[N+](=O)[O-]` [Compound 2, 1-(4-(3,4-dichlorophenyl)thiazol-2-yl)-3-methyl-4-(2-nitrobenzyl)-1H-pyrazole-5-carboxylic acid], the EC50 was > 50 µM.
